Experiments:
[1] = test system: ERα; test: ERα protein in cellular lysates of skin fibroblasts (western blot); assay type: cell-based, human; settings: for E2-induced increase of ERα: skin fibroblasts pre-treated with inhibitor 1 hr prior to E2, 48 hrs
Protocol: Skin fibroblasts (2×10^5 cells per well) were seeded in 35 mm cell culture dishes in DMEM/10% FBS. The following day, the medium was replaced with phenol-red free DMEM (Cellgro) without serum for 24 hours to deprive the cells of estrogen. Fresh phenol-red free DMEM plus 10% charcoal stripped fetal bovine serum (Hyclone, Logan, Utah) was added with one of the following: ethanol as vehicle control (0.1%) or E2 (10 nM; Sigma-Aldrich) for 24 hours (for RNA extraction) or 48 hours (for protein extraction).
Cells were grown to confluency in 35 mm culture dishes. Cells were rinsed with 1×PBS and scraped in sample buffer (20 mM dithiothreitol, 6% SDS, 0.25 M Tris, pH 6.8, 10% glycerol, 10 mM NaF and bromophenyl blue). Samples were separated by electrophoresis on 8% SDS-polacrylamide gels (National Diagnostic, Atlanta, Ga.) and transferred to nitrocellulose membranes. Membranes were blocked with 5% non-fat milk in 1×TBS-Tween20 (0.2 M Tris, 0.14 M NaCl, 0.1% Tween 20), followed by incubation with mouse monoclonal anti-human EDA-fibronectin antibody, rabbit polyclonal anti-human fibronectin antibody, rabbit polyclonal anti-ERα antibody, rabbit polyclonal anti-ERβ antibody (Santa Cruz Biotechnology, Santa Cruz, Calif.), mouse monoclonal anti-human vitronectin, mouse monoclonal anti-β-actin (Sigma-Aldrich), or mouse monoclonal anti-GAPDH (Ambion, Austin, Tex.) in 1×TBS-Tween20 followed by horseradish peroxide-conjugated donkey anti-rabbit IgG (Amersham, Piscataway, N.J.) or donkey anti-mouse IgG (Amersham). Immunoreactive proteins were detected by chemiluminescence (PerkinElmer Life Sciences, Boston, Mass.), followed by autoradiography.
We also examined the effect of the chemical inhibitors on ERα and ERβ.

[2] = test system: fibronectin (FN); test: FN mRNA (RT-PCR) and protein (western blot) expression in primary skin fibroblasts; assay type: cell-based, human; settings: for E2-mediated increase of FN protein: skin fibroblasts pre-treated with inhibitor 1 hr prior to E2, western blot 48 hrs post-treatment, cellular lysates; for FN protein levels in the ECM: primary fibroblasts treated 48 hrs, PPT 100 nM, genistein 100 nM, western blot
Protocol: Skin-punch biopsies (6 mm) were obtained with informed consent from the clinically affected and unaffected skin of 6 patients with SSc and 5 healthy twins. All SSc patients had diffuse skin involvement and met the American College of Rheumatology criteria for the diagnosis of SSc (1). Biopsies were performed on the leading edge of dermal thickening and clinically normal skin. The skin samples were minced, placed in 60-mm tissue culture dishes and cultured at 37° C. in a humidified atmosphere in Dulbecco's modified Eagle's medium (DMEM) (Cellgro, Herndon, Va.) supplemented with 10% fetal bovine serum (FBS; Sigma-Aldrich, St. Louis, Mo.), 100 IU/ml penicillin, and 100 μg/ml streptomycin (Invitrogen, Carlsbad, Calif.). Skin fibroblasts (2×10^5 cells per well) were seeded in 35 mm cell culture dishes in DMEM/10% FBS. The following day, the medium was replaced with phenol-red free DMEM (Cellgro) without serum for 24 hours to deprive the cells of estrogen. […] Sigma-Aldrich) for 24 hours (for RNA extraction) or 48 hours (for protein extraction). TGF-β (10 ng/ml; R&D systems, Minneapolis, Minn.) was used as a positive control. […] Cell Signaling Technology, Beverly, Mass.) were added where indicated. To determine the role of ERα and β on FN individually, cells we cultured with propyl-pyrazole-triol (PPT), an ERα specific ligand (100 nM; Tocris), and genistein, an ERβ specific ligand (100 nM; […] Extracellular matrix (ECM) was extracted as we have previously described. (35) Briefly, cells were rinsed with PBS and incubated with 8M Urea in PBS for 20 mins. Cells were aspirated and the ECM was rinsed three times with PBS. ECM was scraped in 100 μl sample buffer (20 mM dithiothreitol, 6% SDS, 0.25 M Tris, pH 6.8, 10% glycerol, 10 mM NaF and bromophenyl blue) and analyzed by western blot. Skin fibroblasts in early passage (passages 3-4) were harvested and RNA was extracted using TRIzol (Invitrogen). mRNA was reverse transcribed using Superscript II (Invitrogen) following the manufacturer's recommendations. The cDNA generated was used as a template for amplification by PCR with primers specific for ERα [NT] ID NO:1) and […] NO:2), ERβ […] NO:3) and [NT] ID NO:4), Fibronectin, [NT] ID NO:5) and 5-[…] ID NO:6) and β-actin, […] NO:7) and [NT] ID NO:8). PCR amplification was performed in a 50 μl reaction containing 10 units of the reverse transcription reaction, Taq DNA polymerase (Invitrogen), 10×PCR buffer (750 mM Tris-HCl, pH8.8, 200 mM (NH4)2SO4 and 0.1% Tween 20), 1.5 mM MgSO4, 1 mM of each deoxynucleotide triphosphate in a Peltier Thermal Cycler-200 (MJ Research, Waltham, Mass.). Conditions were an initial denaturation at 95° C. for 4 min, followed by 35 cycles of 94° C. for 45 sec, 55° C. for 30 sec, and 68° C. for 2 min. Final extension was at 68° C. for 5 min. 20 μl of each reaction was electrophoresed on a 1% agarose gel in 1×TAE (Tris/acetate/EDTA) buffer and products were visualized following staining with ethidium bromide. Molecular weight of each PCR product: ERα 1062 bp, ERβ 934 bp, FN 513 bp and β-actin 494 bp. Cells were grown to confluency in 35 mm culture dishes. Cells were rinsed with 1×PBS and scraped in sample buffer (20 mM dithiothreitol, 6% SDS, 0.25 M Tris, pH 6.8, 10% glycerol, 10 mM NaF and bromophenyl blue). Samples were separated by electrophoresis on 8% SDS-polacrylamide gels (National Diagnostic, Atlanta, Ga.) and transferred to nitrocellulose membranes. […] Immunoreactive proteins were detected by chemiluminescence (PerkinElmer Life Sciences, Boston, Mass.), followed by autoradiography.

[3] = test system: MCF7; settings: reference (56); read-out: 1050 in the MCF7 proliferation assay; cited from earlier work
[4] = serum half life; cited from earlier work
[5] = test system: human skin; test: ex vivo human skin organ culture: dermal and collagen bundle thickness; settings: explanted human skin, 7 days; for collagen bundle thickness, ratio compared with vehicle / dermal thickness, ratio compared with vehicle: p<0.05, 3 experiments
Protocol: Dermal and collagen bundle thickness were measured in skin sections stained with hematoxylin and eosin.
Dermal thickness was defined as the distance from the granular layer to the junction between the dermis and subcutaneous fat. Images were taken on a Nikon Eclipse 800 microscope (Nikon Instruments, Inc., Huntley, Ill.) using identical camera settings and Image was used to measure thickness. Thickness was measured in 5 random fields in each sample.
(§1) To further examine the effect of estradiol in skin tissues, dermal and collagen bundle thickness in dermis were assessed using an ex vivo organ culture system. Ex-planted skin tissues on 35-mm well plates were treated with estradiol, estrogen receptor alpha or beta agonists (PPT, genistein, respectively) or vehicles (ethanol for estraditol, PPT, DMSO for genistein, respectively) for 7 days, and skin sections were stained with hematoxylin and eosin. […] We also assessed the extent of deposition of fibronectin using immunohistochemistry. […] Thus, estradiol is an important factor for the induction of skin fibrosis, and the effect of estradiol is mediated by estrogen receptor alpha.

[6] = test system: fibronectin; test: ex vivo human skin organ culture: fibronectin immunohistochemistry; settings: explanted human skin, 7 days; anti-fibronectin antibody, AEC
Protocol: 6 μm sections of paraffin-embedded skin tissues were de-paraffinized, endogenous peroxidase was quenched using 10% H2O2, and endogenous biotin was blocked using the biotin blocking kit (Dakocytomation, Carpinteria, Calif.). Sections were blocked with 5% serum and incubated with anti-fibronectin antibody followed by secondary antibody. Bound secondary antibody was detected using the AEC Red kit. A light hematoxylin counterstain was used to identify nuclei. Images were taken on a Nikon Eclipse 800 microscope.
as §1

[7] = test system: SSc; settings: references (25), (57); cited from earlier work

For `N#CC(=C(/N)Sc1ccccc1N)/C(C#N)=C(\N)Sc1ccccc1N` [MEK inhibitor, U0126], the “E2-induced increase of ERα” value [1] was “blocked” and the “E2-mediated increase of FN protein” value [2] was “more modest effect”.
For `C[C@]12CC[C@@H]3c4ccc(O)cc4C[C@@H](CCCCCCCCC[S+]([O-])CCCC(F)(F)C(F)(F)F)[C@H]3[C@@H]1CC[C@@H]2O` (stereo partly drawn) [ICI 182,780, fulvestrant], the IC50 [3] is given as ~0.014 µM, the half life [4] is given as “approximately forty” and the “TGF-β-induced FN levels” value ([2]; TGF-β 10 ng/ml, ICI 182,780 100 nM) is given as “did not affect”. For the same compound, the “effect of E2 on FN mRNA and protein expression in presence of antagonist” value ([2]; normal skin fibroblasts, E2 10 nM 48 hrs, ICI 182,780 100 nM, ECM and supernatants) was “blocked the effect of E2” and the “effect of estradiol on dermal and collagen bundle thickness in presence of antagonist” value ([5]; E2+ICI) was “blocked the effect of estradiol”.
For `C[C@]12CC[C@@H]3c4ccc(O)cc4CC[C@H]3[C@@H]1CC[C@@H]2O` [E2, 17-β-Estradiol], the ERα level ([1]; skin fibroblasts stimulated with E2 48 hrs) was “increased”, the “fibronectin expression ex vivo (immunohistochemistry)” value [6] was “induce fibronectin expression” and the “FN mRNA and protein levels” value ([2]; healthy twin and SSc fibroblasts, E2 10 nM, 24 hrs (mRNA), 48 hrs (protein)) was “increased”. For the same compound, the “FN protein levels in the ECM” value ([2]; E2 10 nM) was “increased”, the “collagen bundle thickness, ratio compared with vehicle” value [5] was 2.62 ± 0.18 arbitrary unit and the “dermal thickness, ratio compared with vehicle” value [5] was 1.61±0.12 arbitrary unit.
For `O=c1c(-c2ccc(O)cc2)coc2cc(O)cc(O)c12` [genistein], the “FN protein levels in the ECM” value ([2]; E2 10 nM) was “modestly increased” and the “thickening of dermis and collagen bundles” value ([5]; vs DMSO vehicle) was “did not induce thickening”.
In the case of `CC/C(=C(\c1ccccc1)c1ccc(OCCN(C)C)cc1)c1ccccc1` [Tamoxifen, tamoxifen], the “SSc symptoms / treatment outcome in SSc patients” value [7] is given as “did not improve SSc symptoms”.
In the case of `Oc1ccc(-c2nc(-c3ccncc3)c(-c3ccc(F)cc3)[nH]2)cc1` [p38 MAPK inhibitor, SB202190], the “E2-induced increase of ERα” value [1] is reported as “blocked” and the “E2-mediated increase of FN protein” value [2] is reported as “attenuated”.
In the case of `CCCc1c(-c2ccc(O)cc2)nn(-c2ccc(O)cc2)c1-c1ccc(O)cc1` [PPT, propyl-pyrazole-triol], the “collagen bundle thickness, ratio compared with vehicle” value [5] is reported as 1.84 ± 0.15 arbitrary unit and the “dermal thickness, ratio compared with vehicle” value [5] is reported as 1.54±0.05 arbitrary unit.
For `CC(=O)Oc1ccc(C(=C2CCCCC2)c2ccc(OC(C)=O)cc2)cc1` [Cyclofenil], the “SSc symptoms / treatment outcome in SSc patients” value [7] is listed as “disappointing results”.

Reference: patent publication US9655869B2, “Estrogen antagonists as treatments for sclerosing disorders” (University of Pittsburgh—Of The Commonwealth System Of …, priority 2009, dated 2017)
